Results reported in patent US4870097A, “Pharmaceutical use of derivatives of tryptophan” (priority 1984, dated 1989).

Tests used:
[1] = tested on: guinea pig gall bladder contracted with CCK-8; test: Anti-CCK activity on guinea pig gall bladders in vitro; assay type: biochemical; details: CCK-8 10 ng/ml, concentration antagonising 50% of contracting effect
Summary of the method: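 Longitudinal gall bladder strips in Krebs at 32° C, gassed with O2/CO2 95:5, were contracted with CCK-8 at 10 ng/ml and contractions recorded isometrically via force transducer. ED50 in mcg/ml is the compound concentration antagonising 50% of CCK contraction, derived by regression over at least three experiments.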

[2] = tested on: tolerance induced by morphine; test: Antagonism to the development of tolerance to repeated administration of morphine HCl (tail flick); assay type: in vivo, rats
Summary of the method: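 Male rats, about 200-250, in groups of six, dosed every 24 h with 3 mg/kg morphine HCl i.p. plus 3 mg/kg i.p. test compound; saline-only and morphine-only groups run alongside. Pain threshold measured by tail flick at […], 30', 45' and 60' after each treatment.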

[3] = tested on: analgesic activity of DALA; test: Tail Flick test: increase in the analgesic activity of DALA (i.c.v.); assay type: in vivo, rats; design: analgesic activity (Tail Flick), 10' / analgesic activity (Tail Flick), 20' / analgesic activity (Tail Flick), 30' / analgesic activity (Tail Flick), 45' / analgesic activity (Tail Flick), 60' / analgesic activity (Tail Flick), AVERAGE: scale not given here; details: for analgesic activity (Tail Flick), AVERAGE: average 10'-60'
Procedure: In order to check one of the possible mechanisms for the action of the compounds of the invention, that is, their possible inhibition of the enzymatic degradation of endogenous enkephalins, the following experiment was carried out:
A cannula was implanted in the right lateral ventricle of male rats having a weight of 150-200 g (groups of five animals were used) in order to allow the intracerebroventricular (i.c.v.) administration of drugs according to the method of Noble et al (Life Science 6, (1970) 281-291).
The animals were subsequently treated (i.c.v.) with 3 μg of D-ala-methionine-enkephalinamide (DALA) immediately after an injection (i.c.v.) of the compounds under study at the doses given in Table 4. Analgesia was tested for by the Tail Flick method already mentioned, at the times

endogenous opiates = test: Tail Flick Test after transcutaneous shock: analgesic activity of endogenous opiates; assay type: in vivo, rats; details: for Average latency, 5': 5' after electric shock; for Average latency, 10': 10' after electric shock; for Average latency, 15': 15' after electric shock
Procedure: Influence of several of the compounds of the invention on the analgesic activity of endogenous opiates released under transcutaneous shock in rats measured by the Tail Flick Test
The method is that described by Lewis et al. (J. Neurosc. 1, 358 (1981). Male rats having a weight of about 200 g, which have not been fasting, are used.
The animals are stressed by the application to the front leg of a 60 Hz-2.5 mA current in pulses of a duration of one second every five seconds for 20 minutes.
This stress regime causes the release of endogenous opiates.

[4] = tested on: activity of analgesic drugs; test: Hot plate test: potentiation of analgesic drugs; assay type: in vivo, rats
Procedure: The method is that described by Eddy et al. (J. Pharmac. Exp. Ther. 107, 385 (1953)).
Groups of five male rats having a weight of about 150 g and which have not been fasting are used.
The animals are placed on a metal plate which is on the bottom of a transparent cylinder heated to 55°±1° C. by an azeotropic boiling mixture (1:1 acetone-ethyl formate). The time which passes between the moment at which the animal is placed on the hot plate and the moment at which it licks its feet or tries to jump out of the cylinder is defined as the reaction time. The control reaction time is measured 10 and 5 minutes before the administration of the drugs and 10, 20, 30, 45, 60, 90 minutes afterwards. The animals are left on the plate for a maximum period of 30 seconds.
The response to the administration of the product is considered positive if at least a doubling of the normal reaction time is seen. The results obtained are given in Table 2 which records the groups treated, the dose administered and the stay times on the plate expressed as the number of positive responses over the number treated.

[5] = days 0-7, 3 mg/kg + morphine (row Morphine: alone)
[6] = oxyphenylbutazone 50 + C. 33 5 mg/kg i.p.
[7] = oxyphenylbutazone 50 + C. 33 10 mg/kg i.p.
[8] = oxyphenylbutazone 50 + C. 33 20 mg/kg i.p.

## O=C(N[C@@H](Cc1c[nH]c2ccccc12)C(=O)O)OC(c1ccccc1)c1ccccc1 [Compound 33]
[1]
  Anti CCK-8 activity, ED50: 76.3 µg/mL
[2]; day 0, 3 mg/kg i.p. + morphine HCl 3 mg/kg i.p. (row Morphine: alone)
  percentage variation in the latency time, day 0: 50.12%
[2]; day 1, 3 mg/kg i.p. + morphine HCl 3 mg/kg i.p. (row Morphine: alone)
  percentage variation in the latency time, day 1: 67.02%
[2]; day 2, 3 mg/kg i.p. + morphine HCl 3 mg/kg i.p. (row Morphine: alone)
  percentage variation in the latency time, day 2: 51.47%
[2]; day 3, 3 mg/kg i.p. + morphine HCl 3 mg/kg i.p. (row Morphine: alone)
  percentage variation in the latency time, day 3: 34.92%
[2]; day 4, 3 mg/kg i.p. + morphine HCl 3 mg/kg i.p. (row Morphine: alone)
  percentage variation in the latency time, day 4: 67.3%
[2]; day 5, 3 mg/kg i.p. + morphine HCl 3 mg/kg i.p. (row Morphine: alone)
  percentage variation in the latency time, day 5: 61.08%
[2]; day 6, 3 mg/kg i.p. + morphine HCl 3 mg/kg i.p. (row Morphine: alone)
  percentage variation in the latency time, day 6: 20.02%
[2]; day 7, 3 mg/kg i.p. + morphine HCl 3 mg/kg i.p. (row Morphine: alone)
  percentage variation in the latency time, day 7: 10.33%
[2]; [5]
  Area subtended (1): 382.1 Effect-Day
  regression line % Effect versus Day: % Effect = - 5.38 Day + 64.12
[2]; rat, in vivo, 3 mg/kg
  Area 1 / Area Morphine: 2.72
[3]; 10(D) + 0.001 mg/kg (ICV)
  analgesic activity (Tail Flick), 10': 64.12
  analgesic activity (Tail Flick), 20': 77.56
  analgesic activity (Tail Flick), 30': 72.7
  analgesic activity (Tail Flick), 45': 45.76
  analgesic activity (Tail Flick), 60': 57.38
  analgesic activity (Tail Flick), AVERAGE: 63.50 ± 5.63
[3]; 10(D) + 0.01 mg/kg (ICV)
  analgesic activity (Tail Flick), 10': 81.48
  analgesic activity (Tail Flick), 20': 100.00
  analgesic activity (Tail Flick), 30': 80.22
  analgesic activity (Tail Flick), 45': 59.24
  analgesic activity (Tail Flick), 60': 55.88
  analgesic activity (Tail Flick), AVERAGE: 75.36 ± 8.08
Endogenous opiates; 0.5 mg/kg i.v. + stress
  Average latency, 5': 6.68 ± 0.53 s
  Average latency, 10': 6.58 ± 0.46 sec.
  Average latency, 15': 5.3 ± 0.56 s
Endogenous opiates; 2 mg/kg i.v. + stress
  Average latency, 5': 9.92 ± 0.92 s
  Average latency, 10': 8.1 ± 1.0 sec.
  Average latency, 15': 6.51 ± 0.48 s
[4]; [6]
  Positive Total X/25: 17
  positive responses over the number treated, 10': 3/5
  positive responses over the number treated, 20': 3/5
  positive responses over the number treated, 30': 4/5
  positive responses over the number treated, 45': 4/5
  positive responses over the number treated, 60': 3/5
[4]; [7]
  Positive Total X/25: 21
  positive responses over the number treated, 10': 3/5
  positive responses over the number treated, 20': 5/5
  positive responses over the number treated, 30': 5/5
  positive responses over the number treated, 45': 5/5
  positive responses over the number treated, 60': 3/5
[4]; [8]
  Positive Total X/25: 22
  positive responses over the number treated, 10': 4/5
  positive responses over the number treated, 20': 5/5
  positive responses over the number treated, 30': 5/5
  positive responses over the number treated, 45': 4/5
  positive responses over the number treated, 60': 4/5
